Experimental data as given in ChEMBL document CHEMBL3994642, “Design, synthesis and biological evaluation of 2-(4-phenylthiazol-2-yl) isoindoline-1,3-dione derivatives as anti-prostate cancer agents” (Bioorg Med Chem Lett, 2017).
Activity calls are given as the source filed them. The rule behind the calls is not given here.

Legend:
PC-3 = experiment: Antiproliferative activity against AR negative human PC3 cells after 48 hrs by MTT assay; format: functional, cell-based; conditions: PC-3, 48 h
[1] = Selectivity ratio of IC50 for AR negative human PC3 cells to IC50 for AR T877A mutant in human LNCAP cells
[2] = Selectivity index, ratio of IC50 for mouse 3T3 cells to IC50 for AR T877A mutant in human LNCAP cells; format: functional
[3] = system: Androgen receptor (Homo sapiens), P10275 [T878A]; experiment: Potency index, ratio of R-bicalutamide IC50 to compound IC50 for AR T877A mutant in human LNCAP cells assessed as inhibition of DHT-induced proliferation; format: cell-based
[4] = system: Androgen receptor (Homo sapiens), P10275 [T878A]; experiment: Potency index, ratio of bicalutamide IC50 to compound IC50 for AR T877A mutant in human LNCAP cells assessed as inhibition of DHT-induced proliferation; format: cell-based
[5] = system: Androgen receptor (Homo sapiens), P10275 [T878A]; experiment: Antagonist activity at AR T877A mutant in human LNCAP cells assessed as inhibition of DHT-induced PSA mRNA level at 1 uM after 24 hrs by SYBR Green dye based qPCR method; format: cell-based
[6] = system: Androgen receptor (Homo sapiens), P10275 [T878A]; experiment: Antagonist activity at AR T877A mutant in human LNCAP cells assessed as inhibition of DHT-induced TMPRSS2 mRNA level at 1 uM after 24 hrs by SYBR Green dye based qPCR method; format: cell-based
[7] = system: Androgen receptor (Homo sapiens), P10275 [T878A]; experiment: Antagonist activity at AR T877A mutant in human LNCAP cells assessed as inhibition of DHT-induced c-Myc mRNA level at 1 uM after 24 hrs by SYBR Green dye based qPCR method; format: cell-based
[8] = system: Androgen receptor (Homo sapiens), P10275 [T878A]; experiment: Antagonist activity at AR T877A mutant in human LNCAP cells assessed as inhibition of DHT-induced Cyclin D1 mRNA level at 1 uM after 24 hrs by SYBR Green dye based qPCR method; format: cell-based
[9] = target: T1, Estrogen receptor (Homo sapiens) (UniProt P03372); experiment: Activity at ER in human LNCAP cells assessed as inhibition of pS2 mRNA level at 5 uM after 24 hrs by SYBR Green dye based qPCR method; format: cell-based
T1 sequence (whole entry): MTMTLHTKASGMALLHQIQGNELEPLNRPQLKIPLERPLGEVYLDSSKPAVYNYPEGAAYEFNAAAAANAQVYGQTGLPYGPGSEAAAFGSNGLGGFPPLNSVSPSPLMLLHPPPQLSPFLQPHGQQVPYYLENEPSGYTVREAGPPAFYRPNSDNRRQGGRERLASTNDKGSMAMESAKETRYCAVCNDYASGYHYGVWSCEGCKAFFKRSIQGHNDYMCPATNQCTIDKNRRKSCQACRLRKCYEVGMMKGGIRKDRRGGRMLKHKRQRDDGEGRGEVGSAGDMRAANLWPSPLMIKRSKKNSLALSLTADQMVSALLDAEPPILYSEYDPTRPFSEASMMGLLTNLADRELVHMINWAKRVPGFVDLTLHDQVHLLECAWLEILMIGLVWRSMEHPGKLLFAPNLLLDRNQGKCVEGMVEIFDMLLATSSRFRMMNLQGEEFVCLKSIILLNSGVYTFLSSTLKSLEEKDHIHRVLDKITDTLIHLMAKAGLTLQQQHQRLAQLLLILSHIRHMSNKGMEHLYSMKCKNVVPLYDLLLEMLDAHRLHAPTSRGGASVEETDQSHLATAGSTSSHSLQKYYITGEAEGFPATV

Sequence of Androgen receptor (Homo sapiens), P10275 [T878A] (P10275 whole entry T878A): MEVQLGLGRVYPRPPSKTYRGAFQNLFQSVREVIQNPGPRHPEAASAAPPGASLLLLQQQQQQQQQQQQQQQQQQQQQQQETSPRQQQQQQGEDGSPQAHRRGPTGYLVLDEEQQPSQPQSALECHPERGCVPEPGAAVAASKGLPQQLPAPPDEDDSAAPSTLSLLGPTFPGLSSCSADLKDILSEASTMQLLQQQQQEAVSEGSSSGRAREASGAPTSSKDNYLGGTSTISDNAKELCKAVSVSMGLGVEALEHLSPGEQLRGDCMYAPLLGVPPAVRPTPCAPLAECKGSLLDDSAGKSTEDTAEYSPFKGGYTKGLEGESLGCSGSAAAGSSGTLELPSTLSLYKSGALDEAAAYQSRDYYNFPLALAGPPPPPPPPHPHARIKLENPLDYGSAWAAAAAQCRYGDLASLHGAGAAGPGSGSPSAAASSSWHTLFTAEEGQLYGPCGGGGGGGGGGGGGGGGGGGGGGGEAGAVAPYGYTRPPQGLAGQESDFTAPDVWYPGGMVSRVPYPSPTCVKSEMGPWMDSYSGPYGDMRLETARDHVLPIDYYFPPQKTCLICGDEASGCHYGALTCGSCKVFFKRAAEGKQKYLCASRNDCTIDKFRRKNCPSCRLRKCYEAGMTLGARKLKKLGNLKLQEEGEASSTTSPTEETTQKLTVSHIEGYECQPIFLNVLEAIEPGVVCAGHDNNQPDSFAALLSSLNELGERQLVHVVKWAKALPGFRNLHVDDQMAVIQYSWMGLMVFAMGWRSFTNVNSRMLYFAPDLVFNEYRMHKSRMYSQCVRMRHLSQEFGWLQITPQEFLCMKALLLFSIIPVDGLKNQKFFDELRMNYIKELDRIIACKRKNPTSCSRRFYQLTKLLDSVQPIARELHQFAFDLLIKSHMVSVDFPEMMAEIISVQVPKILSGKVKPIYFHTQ

Structure (SMILES)	IC50 (PC-3)	Ratio IC50 [1]	Ratio IC50 [2]	further results
N#Cc1ccc(-c2csc(N3C(=O)c4ccccc4C3=O)n2)cc1	40.3 µM	3.67	3.57	–
O=C1c2ccccc2C(=O)N1c1nc(-c2ccc(F)cc2)cs1	37.2 µM	1.3	1.36	–
N#Cc1ccc(-c2csc(N3C(=O)c4ccc(F)cc4C3=O)n2)cc1	43.1 µM	7.23	7.09	Ratio IC50 [3]: 4.6; Ratio IC50 [4]: 7.4; inhibition [5]: Active; inhibition [6]: Active; inhibition [7]: Active; inhibition [8]: Active; inhibition [9]: inactive
CC(O)(CS(=O)(=O)c1ccc(F)cc1)C(=O)Nc1ccc(C#N)c(C(F)(F)F)c1 (stereo unspecified) [BICALUTAMIDE]	60.7 µM	–	–	–
Cc1ccc(-c2csc(N3C(=O)c4ccc(F)cc4C3=O)n2)cc1	44.4 µM	1.71	1.51	–
O=C1c2ccccc2C(=O)N1c1nc(-c2ccc(Cl)cc2)cs1	44.9 µM	1.71	1.91	–
O=C1c2ccc(F)cc2C(=O)N1c1nc(-c2ccccc2)cs1	40.2 µM	1.17	1.9	–
COc1ccc(-c2csc(N3C(=O)c4ccccc4C3=O)n2)cc1	42.9 µM	3.14	3.29	–
O=C1c2ccccc2C(=O)N1c1nc(-c2ccc([N+](=O)[O-])cc2)cs1	41.8 µM	3.17	3.15	–
O=C1c2ccc(F)cc2C(=O)N1c1nc(-c2ccc(Cl)cc2)cs1	38 µM	1.35	1.59	–
COc1ccc(-c2csc(N3C(=O)c4ccc(F)cc4C3=O)n2)cc1	41.3 µM	5.05	5.04	–
O=C1c2ccc(F)cc2C(=O)N1c1nc(-c2ccc([N+](=O)[O-])cc2)cs1	39.9 µM	5.12	4.69	–
O=C1c2ccc(F)cc2C(=O)N1c1nc(-c2ccc(F)cc2)cs1	39.5 µM	1.8	2.04	–
O=C1c2ccccc2C(=O)N1c1nc(-c2ccccc2)cs1	43.9 µM	1.19	1.26	–
Cc1ccc(-c2csc(N3C(=O)c4ccccc4C3=O)n2)cc1	38.4 µM	1.32	1.73	–
C[C@](O)(CS(=O)(=O)c1ccc(F)cc1)C(=O)Nc1ccc(C#N)c(C(F)(F)F)c1 [(R)-BICALUTAMIDE]	59.8 µM	–	–	–
